What was measured:
[1] = target: T1, Alpha-2A adrenergic receptor (Homo sapiens, UniProt P08913); type: cell membranes, Sf9, Membrane; conditions: sf9; further: in other assays of this panel Not Active means under 50% inhibition at 10 µM
T1 sequence (P08913 whole entry): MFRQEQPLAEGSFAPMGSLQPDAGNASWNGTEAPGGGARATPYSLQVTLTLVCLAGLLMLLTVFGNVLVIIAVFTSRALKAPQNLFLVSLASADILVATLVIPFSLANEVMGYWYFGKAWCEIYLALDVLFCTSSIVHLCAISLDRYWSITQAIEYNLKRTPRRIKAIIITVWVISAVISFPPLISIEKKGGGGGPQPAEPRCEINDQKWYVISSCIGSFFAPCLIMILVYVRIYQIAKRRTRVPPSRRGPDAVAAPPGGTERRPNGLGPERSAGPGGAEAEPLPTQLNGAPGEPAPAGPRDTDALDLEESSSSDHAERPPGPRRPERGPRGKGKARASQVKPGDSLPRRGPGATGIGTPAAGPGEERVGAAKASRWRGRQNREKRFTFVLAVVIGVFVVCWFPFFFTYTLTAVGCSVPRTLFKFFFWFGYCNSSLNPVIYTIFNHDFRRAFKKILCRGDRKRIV

[2] = DRUGMATRIX: GABAA, Flunitrazepam, Central radioligand binding (ligand: [3H] Flunitrazepam); type: cell membranes, Rattus norvegicus, Wistar, Brain, Membrane; conditions: Not Active = under 50% inhibition at 10 µM
[3] = DRUGMATRIX: GABAA, Chloride Channel, TBOB radioligand binding (ligand: [3H] TBOB); type: cell membranes, Rattus norvegicus, Wistar, Cerebral cortex, Membrane; conditions: Not Active = under 50% inhibition at 10 µM
[4] = DRUGMATRIX: Glutamate, NMDA, Phencyclidine radioligand binding (ligand: [3H] TCP); type: cell membranes, Rattus norvegicus, Wistar, Cerebral cortex, Membrane; conditions: Not Active = under 50% inhibition at 10 µM
[5] = target: Histamine H2 receptor (Homo sapiens, UniProt P25021); type: cell membranes, CHO-K1, Membrane; conditions: cho-k1; further: in other assays of this panel Not Active means under 50% inhibition at 10 µM
[6] = target: T2, Muscarinic acetylcholine receptor M2 (Homo sapiens, UniProt P08172); type: cell membranes, CHO-K1, Membrane; conditions: cho-k1; further: in other assays of this panel Not Active means under 50% inhibition at 10 µM
T2 sequence (P08172 whole entry): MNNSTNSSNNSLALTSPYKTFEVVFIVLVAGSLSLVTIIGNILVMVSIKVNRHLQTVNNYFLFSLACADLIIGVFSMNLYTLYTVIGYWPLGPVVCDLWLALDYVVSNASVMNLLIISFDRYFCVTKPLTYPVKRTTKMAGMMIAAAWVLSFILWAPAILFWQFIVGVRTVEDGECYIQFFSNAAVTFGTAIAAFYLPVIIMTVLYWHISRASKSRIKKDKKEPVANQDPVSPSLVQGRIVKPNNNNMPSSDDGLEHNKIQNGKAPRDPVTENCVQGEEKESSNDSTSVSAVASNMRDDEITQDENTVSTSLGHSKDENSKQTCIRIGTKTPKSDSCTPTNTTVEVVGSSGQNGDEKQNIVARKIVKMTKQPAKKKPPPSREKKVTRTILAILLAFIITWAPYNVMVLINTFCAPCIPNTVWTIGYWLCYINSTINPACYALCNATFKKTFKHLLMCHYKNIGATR

[7] = target: Protein phosphatase 3 catalytic subunit alpha (Homo sapiens, UniProt Q08209); set-up: species or system Escherichia coli;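 further: inhibition of calcineurin (PP2B) enzyme activity, measured with DiFMUP as the substrate; in other assays of this panel Not Active means under 50% inhibition at 10 µM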

Histamine H2 receptor, sequence (P25021 whole entry): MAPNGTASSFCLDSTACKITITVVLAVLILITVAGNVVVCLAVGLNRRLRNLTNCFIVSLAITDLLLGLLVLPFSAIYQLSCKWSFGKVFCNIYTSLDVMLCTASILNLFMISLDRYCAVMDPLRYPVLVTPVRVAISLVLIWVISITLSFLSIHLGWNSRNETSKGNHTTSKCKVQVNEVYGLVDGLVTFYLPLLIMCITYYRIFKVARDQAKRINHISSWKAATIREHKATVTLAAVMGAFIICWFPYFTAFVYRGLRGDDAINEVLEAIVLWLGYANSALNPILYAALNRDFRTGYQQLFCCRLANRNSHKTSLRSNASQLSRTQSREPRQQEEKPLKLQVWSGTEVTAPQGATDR

CC(C)(CO)C(O)C(=O)NCCCO (configuration not stated) [PANTHENOL]
Not Active: IC50 [1] | IC50 [2] | Ki [2] | IC50 [3] | Ki [3] | IC50 [4] | Ki [4] | IC50 [5] | IC50 [6] | IC50 [7]

COc1ccc(Cc2nccc3cc(OC)c(OC)cc23)cc1OC [PAPAVERINE]
Not Active: IC50 [1] | IC50 [2] | Ki [2] | IC50 [3] | Ki [3] | IC50 [4] | Ki [4] | IC50 [5] | IC50 [6] | IC50 [7]

OCCN1CCN(CCCN2c3ccccc3Sc3ccc(Cl)cc32)CC1 [PERPHENAZINE]
Not Active: IC50 [1] | IC50 [2] | Ki [2] | IC50 [3] | Ki [3] | IC50 [4] | Ki [4] | IC50 [5] | IC50 [6] | IC50 [7]

CCCCC1C(=O)N(c2ccccc2)N(c2ccccc2)C1=O [PHENYLBUTAZONE]
Not Active: IC50 [1] | IC50 [2] | Ki [2] | IC50 [3] | Ki [3] | IC50 [4] | Ki [4] | IC50 [5] | IC50 [6] | IC50 [7]

Cc1cccc(Nc2cc(Cl)nc(SCC(=O)O)n2)c1C [PIRINIXIC ACID]
Not Active: IC50 [1] | IC50 [2] | Ki [2] | IC50 [3] | Ki [3] | IC50 [4] | Ki [4] | IC50 [5] | IC50 [6] | IC50 [7]

CC[C@H](C)C(=O)O[C@H]1C[C@H](O)C=C2C=C[C@H](C)[C@H](CC[C@@H](O)C[C@@H](O)CC(=O)O)[C@H]21 [PRAVASTATIN]
Not Active: IC50 [1] | IC50 [2] | Ki [2] | IC50 [3] | Ki [3] | IC50 [4] | Ki [4] | IC50 [5] | IC50 [6] | IC50 [7]

CC(C)(Sc1cc(C(C)(C)C)c(O)c(C(C)(C)C)c1)Sc1cc(C(C)(C)C)c(O)c(C(C)(C)C)c1 [PROBUCOL]
Not Active: IC50 [1] | IC50 [2] | Ki [2] | IC50 [3] | Ki [3] | IC50 [4] | Ki [4] | IC50 [5] | IC50 [6] | IC50 [7]

COBALT(II) ACETYLACETONATE
Not Active: IC50 [1] | Ki [1] | IC50 [2] | Ki [2] | IC50 [3] | Ki [3] | IC50 [4] | Ki [4] | IC50 [5] | Ki [5] | IC50 [6] | Ki [6] | IC50 [7] | Ki [7]

INSULIN HUMAN
Not Active: IC50 [1] | Ki [1] | IC50 [2] | Ki [2] | IC50 [3] | Ki [3] | IC50 [4] | Ki [4] | IC50 [5] | Ki [5] | IC50 [6] | Ki [6] | IC50 [7] | Ki [7]

POLYVINYL ALCOHOL
Not Active: IC50 [1] | Ki [1] | IC50 [2] | Ki [2] | IC50 [3] | Ki [3] | IC50 [4] | Ki [4] | IC50 [5] | Ki [5] | IC50 [6] | Ki [6] | IC50 [7] | Ki [7]
